Data: PubChem BioAssay AID720588 (Broad Institute, 2013)
The source made the active and inactive calls.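 Rule for the calls: active = fitted curve falls past a set limit of signal loss at no more than twice the top dose; inconclusive = flat fit between 30 and 70% signal loss, or poor fit; inactive = signal rise, flat within 30%, or crossing too high.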

Assay: HEK293T cell cytotoxicity, dose response, cytotoxicity control, CellTiter-Glo luminescence, cherry-pick, set 3 (AID 720588)
Conditions: HEK293T viability, CellTiter-Glo ATP luminescence, 72 h; at 23.5 µM (top of the series)
In the case of `COC(=O)C[C@@H]1CC[C@@H]2[C@@H](COc3ccc(NC(=O)Nc4ccccc4C)cc3C(=O)N2C)O1`, the activity change, negative = cytotoxicity is reported as 19.2% (inactive).

Same assay, conditions: HEK293T viability, CellTiter-Glo ATP luminescence, 72 h; at 26 µM (top of the series)
With `COC(=O)C[C@H]1C=C[C@@H](NC(=O)Nc2ccc(C(F)(F)F)cc2)[C@H](CO)O1` the activity change, negative = cytotoxicity was 4.22% (inactive). With `Cc1ccc(NC(=O)CCN2CCCCC2)cc1` the activity change, negative = cytotoxicity was 17.2% (inactive). In the case of `Cc1ccsc1/C=N/Nc1ccc(C(=O)O)cc1`, the activity change, negative = cytotoxicity is reported as -12.7% (inactive). In the case of `C[C@H]1CN([C@@H](C)CO)C(=O)Cc2cc(NC(=O)CCCCCC(=O)Nc3ccccc3N)ccc2O[C@H]1CN(C)Cc1ccc(C(F)(F)F)cc1`, the activity change, negative = cytotoxicity is reported as -19% (inactive). In the case of `O=C(CCCN1C(=O)/C(=C/c2ccccc2Cl)SC1=S)NNC(=O)c1ccc(Cl)cc1`, the activity change, negative = cytotoxicity is reported as 24.3% (inactive). In the case of `CCOc1ccc(N=C2C(=O)Nc3ccc(C)c(Br)c32)cc1`, the activity change, negative = cytotoxicity is reported as -10.6% (inactive). In the case of `O=c1oc2cc(O)ccc2s1`, the activity change, negative = cytotoxicity is reported as -7.52% (inactive). For `Cc1ccccc1N=CC1=C(O)c2ccccc2C1=O`, the activity change, negative = cytotoxicity was 1.79% (inactive). In the case of `O=C(NC1CCCC1)C(c1ccccc1)n1c(CSCCOc2ccccc2)nc2ccccc21` (configuration not stated), the activity change, negative = cytotoxicity is reported as -14.3% (inactive). With `COc1ccc(/C=C2\SC(=S)N(CCCC(=O)NC3CCCC3)C2=O)cc1OC` the activity change, negative = cytotoxicity was -24.3% (inactive). With `COC(=O)C[C@@H]1CC[C@@H]2[C@H](COc3ccc(NC(=O)c4cc(C)on4)cc3C(=O)N2C)O1` the activity change, negative = cytotoxicity was -12.8% (inactive). With `COc1cc(/C=C/C(=O)CC(=O)/C=C/c2ccc(O)c(OC)c2)ccc1O` the activity change, negative = cytotoxicity was -41.3% (inactive). With `O=C(O)c1ccc(N/N=C/c2cc(Br)cs2)cc1` the activity change, negative = cytotoxicity was -9.61% (inactive). With `COc1ccc(C(=O)NCCNc2nc3cc(C)cc(C)c3cc2C#N)c(OC)c1` the activity change, negative = cytotoxicity was -16.7% (inactive). With `Cc1cc(Br)ccc1N=C1C(=O)Nc2ccccc21` the activity change, negative = cytotoxicity was -16.9% (inactive). For `O=C(N/N=C/c1cnc(N2CCCCC2)s1)c1ccc(C(F)(F)F)cc1`, the activity change, negative = cytotoxicity was -9.42% (inactive). With `N#C[C@H]1[C@H](c2ccc(-c3ccccc3F)cc2)[C@@H](CO)N1C(=O)c1ccccn1` the activity change, negative = cytotoxicity was -19.7% (inactive). In the case of `COc1ccc(C(=O)CN2C(=O)c3ccccc3S2(=O)=O)cc1`, the activity change, negative = cytotoxicity is reported as -13.5% (inactive). For `CC(C)(C)c1ccc(Oc2ccc(N)cn2)cc1`, the activity change, negative = cytotoxicity was -15.7% (inactive). With `O=C1C(=O)N(CCS(=O)(=O)c2ccccc2)c2ccc(Cl)cc21` the activity change, negative = cytotoxicity was -2.19% (inactive). With `CC(C)c1oc(=O)cc2c1[C@@H](O)[C@H]1OC(=O)[C@@]3(C)CC[C@@H](O)[C@@]2(C)C13` (some centres not stated) the activity change, negative = cytotoxicity was -27.6% (inactive). For `Cc1ccc(NC(=O)COC(=O)c2ccc3c(c2)OCO3)cc1S(=O)(=O)N1CCCCC1`, the activity change, negative = cytotoxicity was -15.5% (inactive). With `CCNC(=O)[C@@H]1[C@@H](CO)[C@@H]2Cn3c(ccc(C4=CCCCC4)c3=O)[C@H]1N2CC` the activity change, negative = cytotoxicity was -16.5% (inactive). In the case of `CC(=O)Nc1cc(C(=O)NCc2ccco2)ccc1Sc1ccc(F)cc1`, the activity change, negative = cytotoxicity is reported as 12.1% (inactive). With `O=C(/C=C/c1ccc(Cl)cc1Cl)N(Cc1ccc(Cl)cc1)C1CCS(=O)(=O)C1` (configuration not stated) the activity change, negative = cytotoxicity was -14.5% (inactive). With `COC(=O)c1cccc(NC(=O)NC(=O)c2ccccc2Cl)c1` the activity change, negative = cytotoxicity was -19% (inactive). With `CCn1c(/C=N/NC(=O)c2ccc(OC)cc2)nc2ccccc21` the activity change, negative = cytotoxicity was -10.9% (inactive). For `CCOc1ccc(NC(=O)C(=O)N/N=C\c2ccc(CNS(=O)(=O)c3ccccc3)o2)cc1`, the activity change, negative = cytotoxicity was -24.2% (inactive). For `C=CCn1c(O)c(N=Nc2ccccc2)c2ccccc21`, the activity change, negative = cytotoxicity was 11.3% (inactive). With `Cc1cccc(NC(=O)CN2CCN(C(=O)CNC(=O)c3ccc(-c4ccccc4)cc3)CC2)c1C` the activity change, negative = cytotoxicity was -18.2% (inactive). For `C[C@@H]1CN([C@H](C)CO)C(=O)CCCn2nncc2CO[C@H]1CN(C)Cc1ccc(Oc2ccccc2)cc1`, the activity change, negative = cytotoxicity was -3.49% (inactive). With `Cc1cc(C(=O)NNC(=O)c2ccc(S(=O)(=O)N(C)C)cc2)c(C)o1` the activity change, negative = cytotoxicity was -12.5% (inactive). With `O=C(NCCc1ccccc1)c1ccccc1NC(=O)C1CCCO1` (configuration not stated) the activity change, negative = cytotoxicity was 5.83% (inactive). In the case of `CCCCCCN(C(=O)CCCCCN1C(=O)NC(c2ccc(Cl)cc2)C(C(=O)OCc2ccccc2)=C1C)C(C(=O)NCCCC)c1ccc(OCC(=O)OC)c(C(=O)OC)c1` (configuration not stated), the activity change, negative = cytotoxicity is reported as -3.96% (inactive). For `CN(c1ccc(NC(=O)CCc2c[nH]c3ccccc23)cc1)c1ccccn1`, the activity change, negative = cytotoxicity was -4.8% (inactive). For `O=C1C(=O)N(Cc2cccs2)c2ccccc21`, the activity change, negative = cytotoxicity was -25.8% (inactive). With `Cc1ccc(S(=O)(=O)Nc2ccc3c(c2)C(=O)N([C@@H](C)CO)C[C@@H](C)[C@H](CN(C)Cc2ccc(C(F)(F)F)cc2)OCCCC[C@H](C)O3)cc1` the activity change, negative = cytotoxicity was -33.3% (inactive). For `O=C1CCCC2=C1C(c1ccccn1)Nc1ccc(C(=O)c3ccccc3)cc1N2` (configuration not stated), the activity change, negative = cytotoxicity was 7.12% (inactive). For `COC(=O)[C@H]1[C@H](CO)[C@H]2Cn3c(ccc(-c4ccccc4F)c3=O)[C@@H]1N2CC1CCCC1`, the activity change, negative = cytotoxicity was 56.8% (inactive). With `O=C(O)c1ccc2cc(-c3ccccc3)[nH]c2c1` the activity change, negative = cytotoxicity was -28.5% (inactive). In the case of `Nc1nc(N)c2c(ccc3nccc32)[nH]1`, the activity change, negative = cytotoxicity is reported as -30.1% (inactive). For `O=C(O)CN1C(=O)/C(=C\c2ccccc2OCc2ccc(Cl)cc2Cl)SC1=S`, the activity change, negative = cytotoxicity was 4.7% (inactive). With `C(=C\c1ccc(C2[C@H]3CNC[C@@H]2N3Cc2ccccn2)cc1)/c1ccccc1` (some centres not stated) the activity change, negative = cytotoxicity was 39.5% (inactive). For `COc1ccc(CN(C)c2ncnc3sccc23)c(OC)c1OC`, the activity change, negative = cytotoxicity was -29.1% (inactive). In the case of `COc1ccc(C2=Nn3c(nnc3-c3ccccc3F)SC2)cc1OC1CCOC1` (configuration not stated), the activity change, negative = cytotoxicity is reported as -7.39% (inactive). With `COc1ccc(-c2sc3ccccc3c2-c2ccc(OCCN3CCCCC3)cc2)cc1` the activity change, negative = cytotoxicity was -16% (inactive). For `Cc1sc2nc(CN3CCC(C)CC3)nc(Cl)c2c1C`, the activity change, negative = cytotoxicity was 5.44% (inactive). For `CCCCNC(=O)C(c1ccc(OCC(=O)OC)c(C(=O)OC)c1)N(CCOC)C(=O)CCCCCN1C(=O)NC(c2ccc(-c3ccccc3)cc2)C(C(=O)OCc2ccccc2)=C1C` (configuration not stated), the activity change, negative = cytotoxicity was 2.6% (inactive). In the case of `COc1cc2c(cc1OC)C(C)N(C(=O)c1cc(Cl)nc(Cl)c1)CC2` (configuration not stated), the activity change, negative = cytotoxicity is reported as -13.4% (inactive). With `Cc1ccsc1/C=N/Nc1cccc(C(=O)O)c1` the activity change, negative = cytotoxicity was -23% (inactive). With `Cc1[nH]c(=S)sc1Cc1ccc(Cl)c(Cl)c1` the activity change, negative = cytotoxicity was 20.1% (inactive). In the case of `COc1ccc(C(=O)Nc2cccc(C(=O)N/N=C/c3ccc(OC)cc3OC)c2)cc1`, the activity change, negative = cytotoxicity is reported as -15.7% (inactive). With `CC1(C(=O)NCc2ccco2)Cc2c(-c3cccc(C(N)=O)c3)ccnc2O1` (configuration not stated) the activity change, negative = cytotoxicity was -5.89% (inactive). With `CCOc1ccc(-c2cc(CCCC(=O)NCc3ccc(C)cc3)no2)cc1` the activity change, negative = cytotoxicity was 8.45% (inactive). In the case of `Cc1ccc(Cl)cc1NC(=O)Cn1cc(C(F)(F)F)cc(Cl)c1=O`, the activity change, negative = cytotoxicity is reported as 0.88% (inactive). With `CCc1ccc(/C=C2\SC(=S)N(CCC(=O)Nc3cc(C)on3)C2=O)cc1` the activity change, negative = cytotoxicity was 5.29% (inactive).
